The results in this text go back to ChEMBL document CHEMBL1127141, “Monocyclic -lactam inhibitors of human leukocyte elastase. Stereospecific synthesis and activity of 3,4-disubstituted-2-azetidinones” (Bioorg Med Chem Lett, 1993).

Experiment [1] addresses T1, Neutrophil elastase (Homo sapiens) (UniProt P08246).
T1 sequence (whole entry): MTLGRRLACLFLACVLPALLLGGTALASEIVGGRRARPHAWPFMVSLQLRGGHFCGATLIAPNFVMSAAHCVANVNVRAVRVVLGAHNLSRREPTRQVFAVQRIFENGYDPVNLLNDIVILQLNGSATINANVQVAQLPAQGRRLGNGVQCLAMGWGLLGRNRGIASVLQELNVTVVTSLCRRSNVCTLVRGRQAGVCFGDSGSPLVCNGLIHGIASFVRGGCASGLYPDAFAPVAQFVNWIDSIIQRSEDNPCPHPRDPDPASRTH
As to the kind of experiment: Compound was evaluated for the inhibitory activity against Human leukocyte elastase.

The target in experiment [2] is T2, Neutrophil elastase (Homo sapiens, UniProt P08246).
T2 sequence (P08246 whole entry): T1 sequence (whole entry)
As to the kind of experiment: Compound was evaluated for the inhibitory activity against Human leukocyte elastase; […].

The compound `CCC1C(=O)N(C(=O)NCc2ccccc2)C1Oc1ccc(C(=O)O)cc1` (trans isomer) had a K obs / 1 in experiment [1] of 2480 M⁻¹ s⁻¹.

In turn, `CC[C@@H]1C(=O)N(C(=O)NCc2ccccc2)[C@@H]1Oc1ccc(C(=O)O)cc1` returned a K obs / 1 in experiment [1] of 383 M⁻¹ s⁻¹.

With `CC[C@@H]1C(=O)N(C(=O)NCc2ccccc2)[C@H]1Oc1ccc(C(=O)O)cc1`, the K obs / 1 in experiment [1] came out at 424 M⁻¹ s⁻¹.

Regarding `CC[C@H]1C(=O)N(C(=O)NCc2ccccc2)[C@H]1Oc1ccc(C(=O)O)cc1`, the Ki in experiment [2] was 5.6 µM.
